PubChem BioAssay (NCI)
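Following 48 hours of exposure in 96-well plates, responses at five concentrations were used to interpolate endpoints linearly. At the GI50, growth is halved. At the TGI there is no net growth.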

Key:
Assay in all cases: NCI-60 cell line screen, 48 h
[1] = tested on: 786-0 renal
[2] = tested on: A498 renal
[3] = tested on: A549 NSCLC
[4] = tested on: ACHN renal
[5] = tested on: BT-549 breast
[6] = tested on: CAKI-1 renal
[7] = tested on: CCRF-CEM leukemia
[8] = tested on: COLO 205 colon
[9] = tested on: DU-145 prostate
[10] = tested on: EKVX NSCLC
[11] = tested on: HCC-2998 colon
[12] = tested on: HCT-116 colon
[13] = tested on: HCT-15 colon
[14] = tested on: HL-60(TB) leukemia
[15] = tested on: HOP-62 NSCLC
[16] = tested on: HOP-92 NSCLC
[17] = tested on: HS 578T breast
[18] = tested on: HT29 colon
[19] = tested on: IGROV1 ovarian
[20] = tested on: K-562 leukemia
[21] = tested on: KM12 colon
[22] = tested on: LOX IMVI melanoma
[23] = tested on: M14 melanoma
[24] = tested on: MALME-3M melanoma
[25] = tested on: MCF7 breast
[26] = tested on: MDA-MB-231 breast
[27] = tested on: MDA-MB-435
[28] = tested on: MOLT-4 leukemia
[29] = tested on: NCI-H226 lung
[30] = tested on: NCI-H23 lung
[31] = tested on: NCI-H460 lung
[32] = tested on: NCI-H522 lung
[33] = tested on: NCI/ADR-RES ovarian
[34] = tested on: OVCAR-3 ovarian
[35] = tested on: OVCAR-4 ovarian
[36] = tested on: OVCAR-5 ovarian
[37] = tested on: OVCAR-8 ovarian
[38] = tested on: PC-3 prostate
[39] = tested on: RPMI-8226 leukemia
[40] = tested on: RXF 393 renal
[41] = tested on: SF-268 CNS
[42] = tested on: SF-539 CNS
[43] = tested on: SK-MEL-2 melanoma
[44] = tested on: SK-MEL-28 melanoma
[45] = tested on: SK-MEL-5 melanoma
[46] = tested on: SK-OV-3 ovarian
[47] = tested on: SN12C renal
[48] = tested on: SNB-19 CNS
[49] = tested on: SNB-75 CNS
[50] = tested on: SR leukemia
[51] = tested on: SW-620 colon
[52] = tested on: T-47D breast
[53] = tested on: TK-10 renal
[54] = tested on: U251 CNS
[55] = tested on: UACC-257 melanoma
[56] = tested on: UACC-62 melanoma
[57] = tested on: UO-31 renal

Q: How did the GI50 [1] turn out when `CCCCCCOc1ccc(/C=N/NC(N)=S)cc1` was run?
A: Its GI50 is 1.74 µM.

Q: And the TGI [1]?
A: Its TGI is 6.05 µM.

Q: And the GI50 [2]?
A: The GI50 was 16.8 µM.

Q: And the TGI [2]?
A: Its TGI is 32.3 µM.

Q: And the GI50 [3]?
A: The GI50 was 31.8 µM.

Q: And the TGI [3]?
A: The TGI was over 100 µM.

Q: And the GI50 [4]?
A: The GI50 was 5.89 µM.

Q: And the TGI [4]?
A: The TGI was over 100 µM.

Q: And the GI50 [5]?
A: Its GI50 is 2.79 µM.

Q: What about the TGI [5] of the same compound?
A: The TGI was 9.15 µM.

Q: And the GI50 [6]?
A: The GI50 was 1.57 µM.

Q: And the TGI [6]?
A: The TGI was 5.71 µM.

Q: And the GI50 [7]?
A: Its GI50 is 0.605 µM.

Q: What about the TGI [7] of the same compound?
A: The TGI was 7.69 µM.

Q: What about the GI50 [8] of the same compound?
A: The GI50 was 7.21 µM.

Q: And the TGI [8]?
A: The TGI was 48.5 µM.

Q: What about the GI50 [9] of the same compound?
A: Its GI50 is 7.26 µM.

Q: What about the TGI [9] of the same compound?
A: The TGI was over 100 µM.

Q: What about the GI50 [10] of the same compound?
A: The GI50 was 2.83 µM.

Q: What about the TGI [10] of the same compound?
A: The TGI was over 53.1 µM.

Q: What about the GI50 [11] of the same compound?
A: The GI50 was 6.45 µM.

Q: What about the TGI [11] of the same compound?
A: Its TGI is over 100 µM.

Q: And the GI50 [12]?
A: The GI50 was 3.31 µM.

Q: What about the TGI [12] of the same compound?
A: Its TGI is 16.1 µM.

Q: And the GI50 [13]?
A: Its GI50 is 2.69 µM.

Q: What about the TGI [13] of the same compound?
A: The TGI was over 100 µM.

Q: What about the GI50 [14] of the same compound?
A: Its GI50 is 1.15 µM.

Q: And the TGI [14]?
A: Its TGI is 17.7 µM.

Q: What about the GI50 [15] of the same compound?
A: The GI50 was 60.1 µM.

Q: What about the TGI [15] of the same compound?
A: Its TGI is over 100 µM.

Q: And the GI50 [16]?
A: The GI50 was 2.39 µM.

Q: And the TGI [16]?
A: Its TGI is 27.4 µM.

Q: What about the GI50 [17] of the same compound?
A: The GI50 was 3.16 µM.

Q: What about the TGI [17] of the same compound?
A: The TGI was 15 µM.

Q: And the GI50 [18]?
A: The GI50 was 3.21 µM.

Q: And the TGI [18]?
A: The TGI was over 100 µM.

Q: And the GI50 [19]?
A: The GI50 was 0.922 µM.

Q: And the TGI [19]?
A: The TGI was 5.36 µM.

Q: And the GI50 [20]?
A: The GI50 was 1.72 µM.

Q: And the TGI [20]?
A: Its TGI is over 26.8 µM.

Q: What about the GI50 [21] of the same compound?
A: The GI50 was 3.09 µM.

Q: And the TGI [21]?
A: Its TGI is 13.6 µM.

Q: What about the GI50 [22] of the same compound?
A: The GI50 was 3.78 µM.

Q: And the TGI [22]?
A: The TGI was 21.1 µM.

Q: What about the GI50 [23] of the same compound?
A: Its GI50 is 2.54 µM.

Q: And the TGI [23]?
A: The TGI was 12.1 µM.

Q: What about the GI50 [24] of the same compound?
A: The GI50 was 2.74 µM.

Q: And the TGI [24]?
A: Its TGI is 7.82 µM.

Q: What about the GI50 [25] of the same compound?
A: Its GI50 is 6.74 µM.

Q: What about the TGI [25] of the same compound?
A: Its TGI is 34.3 µM.

Q: And the GI50 [26]?
A: The GI50 was 1.67 µM.

Q: And the TGI [26]?
A: The TGI was 17.1 µM.

Q: And the GI50 [27]?
A: The GI50 was 1.84 µM.

Q: What about the TGI [27] of the same compound?
A: The TGI was 7.56 µM.

Q: And the GI50 [28]?
A: The GI50 was 0.432 µM.

Q: And the TGI [28]?
A: Its TGI is 5.26 µM.

Q: And the GI50 [29]?
A: The GI50 was 3.65 µM.

Q: What about the TGI [29] of the same compound?
A: The TGI was 16.5 µM.

Q: What about the GI50 [30] of the same compound?
A: Its GI50 is 4.3 µM.

Q: And the TGI [30]?
A: Its TGI is over 100 µM.

Q: And the GI50 [31]?
A: The GI50 was 10.2 µM.

Q: And the TGI [31]?
A: The TGI was over 100 µM.

Q: What about the GI50 [32] of the same compound?
A: The GI50 was 0.421 µM.

Q: And the TGI [32]?
A: The TGI was 1.76 µM.

Q: And the GI50 [33]?
A: Its GI50 is 3.4 µM.

Q: What about the TGI [33] of the same compound?
A: The TGI was 18.3 µM.

Q: And the GI50 [34]?
A: Its GI50 is 1.97 µM.

Q: What about the TGI [34] of the same compound?
A: The TGI was 6.6 µM.

Q: What about the GI50 [35] of the same compound?
A: Its GI50 is 3.12 µM.

Q: What about the TGI [35] of the same compound?
A: Its TGI is 35 µM.

Q: And the GI50 [36]?
A: Its GI50 is 12.8 µM.

Q: What about the TGI [36] of the same compound?
A: Its TGI is over 100 µM.

Q: And the GI50 [37]?
A: Its GI50 is 7.69 µM.

Q: And the TGI [37]?
A: The TGI was over 100 µM.

Q: And the GI50 [38]?
A: The GI50 was 4.07 µM.

Q: What about the TGI [38] of the same compound?
A: Its TGI is over 100 µM.

Q: And the GI50 [39]?
A: The GI50 was 1.36 µM.

Q: What about the TGI [39] of the same compound?
A: Its TGI is 4.41 µM.

Q: And the GI50 [40]?
A: The GI50 was 1.44 µM.

Q: What about the TGI [40] of the same compound?
A: The TGI was 3.61 µM.

Q: What about the GI50 [41] of the same compound?
A: Its GI50 is 3.31 µM.

Q: What about the TGI [41] of the same compound?
A: The TGI was 41.8 µM.

Q: And the GI50 [42]?
A: The GI50 was 2.38 µM.

Q: What about the TGI [42] of the same compound?
A: The TGI was 6.06 µM.

Q: And the GI50 [43]?
A: The GI50 was 6.95 µM.

Q: What about the TGI [43] of the same compound?
A: Its TGI is over 49.9 µM.

Q: What about the GI50 [44] of the same compound?
A: The GI50 was 10.9 µM.

Q: And the TGI [44]?
A: The TGI was 38.4 µM.

Q: What about the GI50 [45] of the same compound?
A: Its GI50 is 7.52 µM.

Q: What about the TGI [45] of the same compound?
A: Its TGI is 20.8 µM.

Q: And the GI50 [46]?
A: Its GI50 is 27.2 µM.

Q: What about the TGI [46] of the same compound?
A: The TGI was over 100 µM.

Q: And the GI50 [47]?
A: The GI50 was 2.16 µM.

Q: And the TGI [47]?
A: Its TGI is 9.9 µM.

Q: What about the GI50 [48] of the same compound?
A: The GI50 was 12.3 µM.

Q: And the TGI [48]?
A: Its TGI is over 100 µM.

Q: And the GI50 [49]?
A: The GI50 was 4.74 µM.

Q: What about the TGI [49] of the same compound?
A: Its TGI is 25.6 µM.

Q: And the GI50 [50]?
A: Its GI50 is 4.22 µM.

Q: What about the TGI [50] of the same compound?
A: Its TGI is over 100 µM.

Q: And the GI50 [51]?
A: The GI50 was 1.99 µM.

Q: What about the TGI [51] of the same compound?
A: The TGI was 20.5 µM.

Q: What about the GI50 [52] of the same compound?
A: Its GI50 is 2.39 µM.

Q: And the TGI [52]?
A: The TGI was 18.2 µM.

Q: What about the GI50 [53] of the same compound?
A: The GI50 was 5.54 µM.

Q: And the TGI [53]?
A: Its TGI is 30.1 µM.

Q: What about the GI50 [54] of the same compound?
A: Its GI50 is 7.96 µM.

Q: What about the TGI [54] of the same compound?
A: Its TGI is over 100 µM.

Q: And the GI50 [55]?
A: Its GI50 is 3.5 µM.

Q: What about the TGI [55] of the same compound?
A: Its TGI is 27.8 µM.

Q: What about the GI50 [56] of the same compound?
A: The GI50 was 2.58 µM.

Q: And the TGI [56]?
A: Its TGI is 10.3 µM.

Q: And the GI50 [57]?
A: Its GI50 is 0.822 µM.

Q: And the TGI [57]?
A: Its TGI is 3.66 µM.
